# Results taken from publication PMC11066006, “Discovery of active mouse, plant and fungal cytochrome P450s in endogenous proteomes and upon expression in planta” (Scientific Reports, 2024).
# Assays:
# Format in all cases: biochemical
# [1] = molecular target: T1, ZmCYP81A9-GFP (Zea mays, UniProt A0A804P7U7); assay: activity-based labeling, click chemistry, in-gel fluorescence; conditions: 10 μM probe, 1 mM NADPH, 1.5 h, leaf microsomes; covalent
# T1 construct: C-terminal GFP fusion, codon-optimised, agroinfiltrated Nicotiana benthamiana leaf microsomes
# T1 sequence (A0A804P7U7 with tags, fused parts or gaps): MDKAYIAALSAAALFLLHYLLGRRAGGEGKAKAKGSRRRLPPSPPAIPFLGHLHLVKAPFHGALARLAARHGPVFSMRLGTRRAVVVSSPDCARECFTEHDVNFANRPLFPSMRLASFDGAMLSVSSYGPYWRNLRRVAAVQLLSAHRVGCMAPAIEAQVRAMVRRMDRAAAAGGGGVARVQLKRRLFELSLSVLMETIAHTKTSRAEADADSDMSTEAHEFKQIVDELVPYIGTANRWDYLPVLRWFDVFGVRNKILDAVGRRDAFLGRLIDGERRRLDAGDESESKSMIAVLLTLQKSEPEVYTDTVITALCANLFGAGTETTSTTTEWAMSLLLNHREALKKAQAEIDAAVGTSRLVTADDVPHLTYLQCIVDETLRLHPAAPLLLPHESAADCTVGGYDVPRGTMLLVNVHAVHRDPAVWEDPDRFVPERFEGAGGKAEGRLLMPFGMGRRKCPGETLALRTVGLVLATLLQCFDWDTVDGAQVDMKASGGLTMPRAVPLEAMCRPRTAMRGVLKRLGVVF
# [2] = molecular target: T2, MmCyp1a2-GFP (Mus musculus, UniProt P00186); assay: as above; conditions: 10 μM probe, 1 mM NADPH, 1.5 h, leaf microsomes; covalent
# T2 construct: gene Cyp1a2; C-terminal GFP fusion, 82 kDa, codon-optimised, agroinfiltrated Nicotiana benthamiana leaf microsomes
# T2 sequence (P00186 2-513): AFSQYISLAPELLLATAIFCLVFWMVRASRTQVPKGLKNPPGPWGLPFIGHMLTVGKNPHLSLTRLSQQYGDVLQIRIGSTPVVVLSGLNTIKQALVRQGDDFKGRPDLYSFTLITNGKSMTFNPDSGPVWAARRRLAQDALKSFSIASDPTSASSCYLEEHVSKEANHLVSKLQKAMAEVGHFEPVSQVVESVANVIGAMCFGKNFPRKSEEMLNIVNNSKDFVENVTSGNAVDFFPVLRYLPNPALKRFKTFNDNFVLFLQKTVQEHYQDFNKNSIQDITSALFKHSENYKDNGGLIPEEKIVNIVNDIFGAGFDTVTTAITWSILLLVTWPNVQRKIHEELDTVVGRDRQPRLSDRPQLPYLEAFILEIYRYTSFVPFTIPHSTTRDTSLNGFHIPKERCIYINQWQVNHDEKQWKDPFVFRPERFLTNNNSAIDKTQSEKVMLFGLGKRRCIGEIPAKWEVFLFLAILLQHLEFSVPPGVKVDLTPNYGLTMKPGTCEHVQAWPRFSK
# [3] = molecular target: T1, ZmCYP81A9-GFP; assay: activity-based labeling, streptavidin pull-down LC-MS/MS; conditions: 10 μM probe, 1 mM NADPH, 1.5 h, leaf microsomes; covalent
# [4] = molecular target: T3, ZtCYP539A6 (Zymoseptoria tritici, UniProt F9XDL6); assay: as above; conditions: 30 μM probe, 1 mM NADPH, 1 h, native Z. tritici microsomes; covalent
# T3 construct: gene CYP-30; native, microsomes of Z. tritici cell cultures, identified by MS; also expressed as C-terminal GFP fusion in N. benthamiana
# T3 sequence (F9XDL6 1-542): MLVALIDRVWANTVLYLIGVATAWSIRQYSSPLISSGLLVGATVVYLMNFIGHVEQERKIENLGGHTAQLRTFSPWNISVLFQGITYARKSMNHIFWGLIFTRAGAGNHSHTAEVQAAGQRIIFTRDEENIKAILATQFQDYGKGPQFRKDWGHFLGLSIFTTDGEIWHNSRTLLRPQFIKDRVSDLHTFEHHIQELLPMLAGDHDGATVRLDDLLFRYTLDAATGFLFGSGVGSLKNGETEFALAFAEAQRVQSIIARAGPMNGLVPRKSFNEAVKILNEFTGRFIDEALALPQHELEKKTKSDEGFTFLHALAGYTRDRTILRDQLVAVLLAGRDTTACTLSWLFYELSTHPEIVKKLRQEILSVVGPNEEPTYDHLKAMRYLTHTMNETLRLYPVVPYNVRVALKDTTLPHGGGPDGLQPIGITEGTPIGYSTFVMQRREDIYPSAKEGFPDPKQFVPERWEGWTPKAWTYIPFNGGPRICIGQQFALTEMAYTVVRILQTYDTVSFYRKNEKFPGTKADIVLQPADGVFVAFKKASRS
# [5] = molecular target: T4, ZtCYP52R1 (Zymoseptoria tritici, UniProt F9XML6); assay: as above; conditions: 30 μM probe, 1 mM NADPH, 1 h, native Z. tritici microsomes; covalent
# T4 construct: gene CYP-29; native, microsomes of Z. tritici cell cultures, identified by MS; also expressed as C-terminal GFP fusion in N. benthamiana
# T4 sequence (F9XML6 1-521): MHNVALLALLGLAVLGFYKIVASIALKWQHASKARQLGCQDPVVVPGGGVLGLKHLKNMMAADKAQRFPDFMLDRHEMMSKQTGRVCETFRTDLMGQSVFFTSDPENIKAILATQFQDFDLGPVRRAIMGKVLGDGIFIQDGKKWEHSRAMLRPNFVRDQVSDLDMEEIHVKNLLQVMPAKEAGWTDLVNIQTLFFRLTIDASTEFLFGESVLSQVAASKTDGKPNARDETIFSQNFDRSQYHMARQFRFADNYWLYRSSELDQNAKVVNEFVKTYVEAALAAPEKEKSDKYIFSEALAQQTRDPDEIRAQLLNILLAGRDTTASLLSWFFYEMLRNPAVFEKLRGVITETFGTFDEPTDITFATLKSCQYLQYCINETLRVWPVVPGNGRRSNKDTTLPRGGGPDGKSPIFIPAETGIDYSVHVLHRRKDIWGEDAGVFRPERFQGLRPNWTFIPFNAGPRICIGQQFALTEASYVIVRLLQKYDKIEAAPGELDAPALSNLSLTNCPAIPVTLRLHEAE
# [6] = molecular target: T1, ZmCYP81A9-GFP; assay: activity-based labeling, in-gel fluorescence; streptavidin pull-down LC-MS/MS; conditions: 10 μM probe, 1 mM NADPH, 1.5 h, leaf microsomes; covalent
# [7] = molecular target: T5, ZmCYP81A9 (Zea mays, UniProt A0A804P7U7); assay: hydroxylation monitored by LC-MS; conditions: yeast microsomes, 200 μM bentazone, 1 mM NADPH, pH 7.5, 28 °C, 2 h
# T5 construct: untagged as described; codon-optimised ORF in pYES3, microsomes of Saccharomyces cerevisiae WAT11
# T5 sequence (A0A804P7U7 with tags, fused parts or gaps): T1 sequence (A0A804P7U7 with tags, fused parts or gaps)
structure (smiles),measurement,setting,value
C#CCCCCNC(=O)c1cc2ccc(C#C)cc2oc1=O [DB086],"activity-based labeling, click chemistry, in-gel fluorescence",[1],NADPH-dependent fluorescent signal for DB086 and DB096
same,"activity-based labeling, click chemistry, in-gel fluorescence",[2],tested these for labeling with DB086 and DB096
C#CCCCCNC(=O)C1=Cc2ccc(C#C)cc2CC1 [DB088],"activity-based labeling, streptavidin pull-down LC-MS/MS",[3],confirming that ZmCYP81A9-GFP is labeled by both DB088 and DB096
C#CCCCCNC(=O)c1ccc(C#C)cc1 [DB096],"activity-based labeling, streptavidin pull-down LC-MS/MS",[4],"amongst the DB096-enriched proteins: ZtCYP52R1, ZtCYP539A6, ZtCYP5078B1 and ZtCYP5080H1"
same,"activity-based labeling, streptavidin pull-down LC-MS/MS",[5],"amongst the DB096-enriched proteins: ZtCYP52R1, ZtCYP539A6, ZtCYP5078B1 and ZtCYP5080H1"
same,"activity-based labeling, in-gel fluorescence; streptavidin pull-down LC-MS/MS",[6],NADPH-dependent fluorescent signal for DB086 and DB096
same,"activity-based labeling, click chemistry, in-gel fluorescence",[2],tested these for labeling with DB086 and DB096
CC(C)N1C(=O)c2ccccc2NS1(=O)=O [bentazone],hydroxylation monitored by LC-MS,[7],"used to monitor the conversion of bentazone, leading to hydroxybentazone"
